IC50 data for 19 compounds are collected here from patent US9403813B2, “Azetidine amide derivatives as orexin receptor antagonists” (ACTELION PHARMACEUTICALS LTD, priority 2013, dated 2016).

The target of one assay is human orexin-1 receptor (Homo sapiens (Human), UniProt O43613). The experiment in a line: Intracellular calcium measurements (FLIPR), antagonism of orexin-A response. Particulars: CHO cells expressing human orexin-1 receptor, 3 nM orexin-A, geometric mean if determined several times, read-out: IC50 OX1. It counts as cell-based. In short, it runs like this: (§1)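 CHO cells expressing human OX1 or OX2 receptor, loaded with fluo-4 AM plus probenecid, preincubated with antagonist 120 min before 3 nM orexin-A challenge. FLIPR calcium peak heights compared with agonist-plus-vehicle response. IC50 possibly normalized to on-plate reference; geometric mean of repeat determinations.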
Sequence of human orexin-1 receptor (O43613 whole entry): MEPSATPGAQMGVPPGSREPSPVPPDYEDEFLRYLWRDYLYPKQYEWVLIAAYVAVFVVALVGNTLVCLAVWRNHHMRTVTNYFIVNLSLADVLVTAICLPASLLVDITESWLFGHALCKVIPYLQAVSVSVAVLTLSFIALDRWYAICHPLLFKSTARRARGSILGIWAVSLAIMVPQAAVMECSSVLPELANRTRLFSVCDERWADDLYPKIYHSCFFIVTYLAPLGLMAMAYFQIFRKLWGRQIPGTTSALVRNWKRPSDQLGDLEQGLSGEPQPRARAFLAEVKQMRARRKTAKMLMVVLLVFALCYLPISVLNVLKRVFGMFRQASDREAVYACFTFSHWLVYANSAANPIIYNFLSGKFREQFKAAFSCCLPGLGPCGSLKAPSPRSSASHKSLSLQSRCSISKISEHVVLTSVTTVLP
For orientation: Calcium flux is commonly read through the fluorescence of an indicator in the cells.

The next assay has as its target human orexin-2 receptor (Homo sapiens (Human), UniProt O43614). The assay is described as above. It counts as cell-based. Particulars: CHO cells expressing human orexin-2 receptor, 3 nM orexin-A, geometric mean if determined several times, read-out: IC50 OX2. Put shortly:
as §1

Sequence of human orexin-2 receptor (O43614 whole entry): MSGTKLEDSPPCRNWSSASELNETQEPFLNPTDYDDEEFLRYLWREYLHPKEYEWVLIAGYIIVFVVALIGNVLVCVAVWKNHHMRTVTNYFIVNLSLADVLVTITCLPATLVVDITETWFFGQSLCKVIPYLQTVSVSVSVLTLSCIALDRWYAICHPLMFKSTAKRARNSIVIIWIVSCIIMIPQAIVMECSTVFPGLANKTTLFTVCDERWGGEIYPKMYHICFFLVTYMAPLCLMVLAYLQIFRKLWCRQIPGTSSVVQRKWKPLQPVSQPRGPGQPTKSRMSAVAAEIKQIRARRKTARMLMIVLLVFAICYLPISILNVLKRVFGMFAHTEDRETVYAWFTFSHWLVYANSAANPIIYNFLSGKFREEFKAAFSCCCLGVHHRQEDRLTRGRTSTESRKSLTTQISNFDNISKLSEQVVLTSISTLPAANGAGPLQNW

The term IC50 denotes the concentration at which inhibition is half-maximal. Turning to `Cc1ccc(-n2nccn2)c(C(=O)N2CC[C@H]2c2noc(-c3cccc(F)c3C)n2)c1` [Example 93, {(S)-2-[5-(3-Fluoro-2-methyl-phenyl)-[1,2,4]oxadiazol-3-yl]-azetidin-1-yl}-(5-methyl-2-[1,2,3]triazol-2-yl-phenyl)-methanone], the results for the IC50 at human orexin-1 receptor and at human orexin-2 receptor were 0.655 µM and 0.008 µM, respectively.

As to `COc1cc(C(=O)N2CC[C@H]2c2noc(-c3ccccc3OC(F)(F)F)n2)c(-n2nccn2)cc1Cl` [Example 94, (4-Chloro-5-methoxy-2-[1,2,3]triazol-2-yl-phenyl)-{(S)-2-[5-(2-trifluoromethoxy-phenyl)-[1,2,4]oxadiazol-3-yl]-azetidin-1-yl}-methanone], the IC50 is 0.326 µM on human orexin-1 receptor and 0.011 µM on human orexin-2 receptor.

As to `Cc1cc(-n2nccn2)c(C(=O)N2CC[C@H]2c2noc(-c3ccccc3OC(F)(F)F)n2)cc1Cl` [Example 95, (5-Chloro-4-methyl-2-[1,2,3]triazol-2-yl-phenyl)-{(S)-2-[5-(2-trifluoromethoxy-phenyl)-[1,2,4]oxadiazol-3-yl]-azetidin-1-yl}-methanone], the values for the IC50 at human orexin-1 receptor and on human orexin-2 receptor were 0.06 µM and 0.006 µM, respectively.

On to `COc1cc(C(=O)N2CC[C@H]2c2noc(-c3cccc(F)c3C)n2)c(-n2nccn2)cc1Cl` [Example 96, (4-Chloro-5-methoxy-2-[1,2,3]triazol-2-yl-phenyl)-{(S)-2-[5-(3-fluoro-2-methyl-phenyl)-[1,2,4]oxadiazol-3-yl]-azetidin-1-yl}-methanone], for which the IC50 is 0.306 µM at human orexin-1 receptor and 0.003 µM at human orexin-2 receptor.

For the compound `CCOc1ncccc1-c1nc([C@@H]2CCN2C(=O)c2ccc(C)cc2-n2nccn2)no1` [Example 97, {(S)-2-[5-(2-Ethoxy-pyridin-3-yl)-[1,2,4]oxadiazol-3-yl]-azetidin-1-yl}-(4-methyl-2-[1,2,3]triazol-2-yl-phenyl)-methanone], the IC50 amounted to 0.257 µM at human orexin-1 receptor and 0.01 µM at human orexin-2 receptor.

With `CCOc1ncccc1-c1nc([C@@H]2CCN2C(=O)c2cc(OC)c(Cl)cc2-n2nccn2)no1` [Example 98, (4-Chloro-5-methoxy-2-[1,2,3]triazol-2-yl-phenyl)-{(S)-2-[5-(2-ethoxy-pyridin-3-yl)-[1,2,4]oxadiazol-3-yl]-azetidin-1-yl}-methanone], the IC50 at human orexin-1 receptor came out at 0.083 µM; at human orexin-2 receptor it was 0.001 µM.

On to `CCOc1ncccc1-c1nc([C@@H]2CCN2C(=O)c2cc(Cl)c(C)cc2-n2nccn2)no1` [Example 99, (5-Chloro-4-methyl-2-[1,2,3]triazol-2-yl-phenyl)-{(S)-2-[5-(2-ethoxy-pyridin-3-yl)-[1,2,4]oxadiazol-3-yl]-azetidin-1-yl}-methanone], for which the results for the IC50 at human orexin-1 receptor and at human orexin-2 receptor were 0.02 µM and 0.001 µM, respectively.

Take `Cc1c(Cl)cccc1-c1nc([C@@H]2CCN2C(=O)c2ccccc2-n2nccn2)no1` [Example 100, {(S)-2-[5-(3-Chloro-2-methyl-phenyl)-[1,2,4]oxadiazol-3-yl]-azetidin-1-yl}-(2-[1,2,3]triazol-2-yl-phenyl)-methanone]: the IC50 at human orexin-1 receptor came to 0.82 µM; on human orexin-2 receptor, 0.034 µM.

`Cc1ccc(-n2nccn2)c(C(=O)N2CC[C@H]2c2noc(-c3cccc(Cl)c3C)n2)c1` [Example 101, {(S)-2-[5-(3-Chloro-2-methyl-phenyl)-[1,2,4]oxadiazol-3-yl]-azetidin-1-yl}-(5-methyl-2-[1,2,3]triazol-2-yl-phenyl)-methanone]: the IC50 on human orexin-1 receptor is 0.088 µM; at human orexin-2 receptor, 0.008 µM.

On to `Cc1cc(C(=O)N2CC[C@H]2c2noc(-c3cccc(Cl)c3C)n2)c(-n2nccn2)cc1C` [Example 102, {(S)-2-[5-(3-Chloro-2-methyl-phenyl)-[1,2,4]oxadiazol-3-yl]-azetidin-1-yl}-(4,5-dimethyl-2-[1,2,3]triazol-2-yl-phenyl)-methanone], for which the IC50 on human orexin-1 receptor came out at 0.041 µM; on human orexin-2 receptor, 0.002 µM.

For the compound `COc1cc(C(=O)N2CC[C@H]2c2noc(-c3cccc(Cl)c3C)n2)c(-n2nccn2)cc1C` [Example 103, {(S)-2-[5-(3-Chloro-2-methyl-phenyl)-[1,2,4]oxadiazol-3-yl]-azetidin-1-yl}-(5-methoxy-4-methyl-2-[1,2,3]triazol-2-yl-phenyl)-methanone], the IC50 at human orexin-1 receptor worked out at 0.059 µM; on human orexin-2 receptor it was 0.002 µM.

On to `COc1cc(C(=O)N2CC[C@H]2c2noc(-c3cccc(Cl)c3C)n2)c(-n2nccn2)cc1Cl` [Example 104, (4-Chloro-5-methoxy-2-[1,2,3]triazol-2-yl-phenyl)-{(S)-2-[5-(3-chloro-2-methyl-phenyl)-[1,2,4]oxadiazol-3-yl]-azetidin-1-yl}-methanone], for which the IC50 worked out at 0.181 µM on human orexin-1 receptor and 0.002 µM on human orexin-2 receptor.

Take `Cc1cc(-n2nccn2)c(C(=O)N2CC[C@H]2c2noc(-c3cccc(Cl)c3C)n2)cc1Cl` [Example 105, {(S)-2-[5-(3-Chloro-2-methyl-phenyl)-[1,2,4]oxadiazol-3-yl]-azetidin-1-yl}-(5-chloro-4-methyl-2-[1,2,3]triazol-2-yl-phenyl)-methanone]: the IC50 was determined as 0.122 µM at human orexin-1 receptor and 0.005 µM at human orexin-2 receptor.

In the case of `Cc1ccc(C(=O)N2CC[C@H]2c2noc(-c3cccc(Cl)c3C)n2)c(-n2nccn2)c1` [Example 106, {(S)-2-[5-(3-Chloro-2-methyl-phenyl)-[1,2,4]oxadiazol-3-yl]-azetidin-1-yl}-(4-methyl-2-[1,2,3]triazol-2-yl-phenyl)-methanone], the values for the IC50 on human orexin-1 receptor and on human orexin-2 receptor were 0.33 µM and 0.009 µM, respectively.

Take `Cc1c(Cl)cccc1-c1nc([C@@H]2CCN2C(=O)c2ccc(Cl)cc2-n2nccn2)no1` [Example 107, {(S)-2-[5-(3-Chloro-2-methyl-phenyl)-[1,2,4]oxadiazol-3-yl]-azetidin-1-yl}-(4-chloro-2-[1,2,3]triazol-2-yl-phenyl)-methanone]: the IC50 at human orexin-1 receptor was 0.317 µM; on human orexin-2 receptor, 0.013 µM.

Take `Cc1c(Cl)cccc1-c1nc([C@@H]2CCN2C(=O)c2ccc(C(F)(F)F)cc2-n2nccn2)no1` [Example 108, {(S)-2-[5-(3-Chloro-2-methyl-phenyl)-[1,2,4]oxadiazol-3-yl]-azetidin-1-yl}-(2-[1,2,3]triazol-2-yl-4-trifluoromethyl-phenyl)-methanone]: the IC50 on human orexin-1 receptor amounted to 0.759 µM; on human orexin-2 receptor it was 0.028 µM.

In the case of `COc1c(Cl)cccc1-c1nc([C@@H]2CCN2C(=O)c2cc(C)ccc2-n2nccn2)no1` [Example 109, {(S)-2-[5-(3-Chloro-2-methoxy-phenyl)-[1,2,4]oxadiazol-3-yl]-azetidin-1-yl}-(5-methyl-2-[1,2,3]triazol-2-yl-phenyl)-methanone], the values for the IC50 on human orexin-1 receptor and on human orexin-2 receptor were 0.132 µM and 0.003 µM, respectively.

Consider `COc1c(Cl)cccc1-c1nc([C@@H]2CCN2C(=O)c2cc(C)c(C)cc2-n2nccn2)no1` [Example 110, {(S)-2-[5-(3-Chloro-2-methoxy-phenyl)-[1,2,4]oxadiazol-3-yl]-azetidin-1-yl}-(4,5-dimethyl-2-[1,2,3]triazol-2-yl-phenyl)-methanone], for which the IC50 on human orexin-1 receptor came out at 0.046 µM; at human orexin-2 receptor it was 0.001 µM.

In the case of `COc1cc(C(=O)N2CC[C@H]2c2noc(-c3cccc(Cl)c3OC)n2)c(-n2nccn2)cc1C` [Example 111, {(S)-2-[5-(3-Chloro-2-methoxy-phenyl)-[1,2,4]oxadiazol-3-yl]-azetidin-1-yl}-(5-methoxy-4-methyl-2-[1,2,3]triazol-2-yl-phenyl)-methanone], the IC50 at human orexin-1 receptor was 0.082 µM; on human orexin-2 receptor it was 0.0007 µM.
